Source: the supplement of paper PMC7801607

Each compound was assayed on Plasmodium falciparum Dd2 asexual blood stage.
With `O=[N+]([O-])c1cn(Cc2nc(O)nc(O)c2Br)cn1` the IC50 was over 5 µM. With `COCCn1cnc2c(=O)[nH]c(Nc3ccccc3)nc21` the IC50 was over 5 µM. In the case of `CCCCc1ccc(-c2nc(C)c(C(=O)OC)s2)cc1`, the IC50 is reported as over 5 µM. In the case of `Cc1ncc([N+](=O)[O-])n1CC(C)O` (configuration not stated), the IC50 is reported as over 5 µM. `O=c1oc2ccc(Br)cc2cc1CSc1ncc[nH]1` was tested, and the IC50 was over 5 µM. `Nc1nc(O)c(Br)c(-c2ccccc2)n1` was tested, and the IC50 was over 5 µM. `CN(C/C=C/C#CC(C)(C)C)Cc1cccc2ccccc12` gave an IC50 of over 5 µM. `OC[C@@H]1CC[C@H](n2cnc3c(O)ncnc32)O1` was tested, and the IC50 was over 5 µM. Work on `O=C(CCc1ccc2c(c1)OCO2)NCc1ccc(-c2ccccc2F)cc1` yielded an IC50 of over 5 µM. With `O=C(NCc1cccc2ccccc12)c1cccs1` the IC50 was over 5 µM. In the case of `C[C@H]1CC[C@]2(NC1)O[C@H]1C[C@H]3[C@@H]4CC[C@H]5C[C@@H](O)CC[C@]5(C)[C@H]4CC[C@]3(C)[C@H]1[C@@H]2C`, the IC50 is reported as over 5 µM. `CCCCCOc1ccc(/C=C2\Oc3c(ccc(O)c3O)C2=O)c(O)c1` gave an IC50 of over 5 µM. For `Cc1onc(-c2ccccc2)c1-c1ccc(S(N)(=O)=O)cc1`, the IC50 was over 5 µM. With `O=C1c2cccc3cccc(c23)C(=O)N1CC1CO1` (configuration not stated) the IC50 was 4.29 µM. In the case of `O=C(O)COc1cccc2c1CC[C@](O)(COC(=O)N(c1ccccc1)c1ccccc1)C2`, the IC50 is reported as over 5 µM. `CCCNc1ccc(S(=O)(=O)Nc2cc(C)on2)cc1` was tested, and the IC50 was over 5 µM. For `COc1ccc(NC(=O)CC2Sc3ncnn3C2=O)cc1` (configuration not stated), the IC50 was over 5 µM. In the case of `CCOc1ccc(/C=N/NC(=O)C2CC2c2ccc(C(C)(C)C)cc2)cc1OCC` (configuration not stated), the IC50 is reported as over 5 µM. Compound `CCCCCCCCCN1C[C@@H](O)[C@H](O)[C@@H](O)[C@@H]1CO` has an IC50 of over 5 µM. Compound `CC(C)(C)OC(=O)NCc1ccc(C(=O)N[C@H]2CCOC2=O)cc1` has an IC50 of over 5 µM. In the case of `O=c1nc(N2CCN(CC3CCCCC3)CC2)sc2c([N+](=O)[O-])cc(C(F)(F)F)cc12`, the IC50 is reported as over 5 µM. `O=C1NC(=O)C(Br)=C1Br` was tested, and the IC50 was over 5 µM. With `CCc1cc(CCC(=O)Nc2ccccc2O)c(=O)[nH]c1C` the IC50 was over 5 µM. Work on `CN1c2ccc(Cl)cc2N(c2ccccc2)C(=O)c2cn(Cc3ccc(CN4CCOCC4)cc3)nc21` yielded an IC50 of over 5 µM. `O=C(O)CCNC(=O)c1ccccc1` was tested, and the IC50 was over 5 µM. `O=S(=O)(NCB(O)O)c1cc2c(Cl)ccc(Cl)c2s1` was tested, and the IC50 was over 5 µM. With `CCNC(=O)Nc1cc(-c2ccccc2)c(-c2cncc(C(=O)O)c2)cn1` the IC50 was over 5 µM. `Cc1[nH]c2ccccc2c1CC(=O)N[C@@H](Cc1ccccc1)C(=O)N(C)c1ccccc1` showed an IC50 of over 5 µM. Compound `CSC[C@H]1CN(Cc2c[nH]c3c(N)ncnc23)C[C@@H]1O` has an IC50 of over 5 µM. Compound `COc1ccc(SCC(=O)N2c3ccccc3Sc3ccccc32)cc1` has an IC50 of over 5 µM. `COc1ccccc1CN[C@H]1C2CCN(CC2)[C@H]1C(c1ccccc1)c1ccccc1` showed an IC50 of 2.23 µM. `CC(C)(C)c1ccc(OCCn2nc(C(=O)O)c3ccccc3c2=O)cc1` gave an IC50 of over 5 µM. `O=C(Cc1ccccc1F)Nc1nc2ccccc2[nH]1` showed an IC50 of over 5 µM. In the case of `COc1ccc(C[C@@H](C)[C@@H](C)Cc2ccc(OC)c(OC)c2)cc1OC`, the IC50 is reported as over 5 µM. Work on `CCc1cc(Nc2cc(=O)n(CCN3CCN(C(=O)c4ccccc4)CC3)c(=O)[nH]2)ccc1C` yielded an IC50 of over 5 µM. `NC(=O)c1c(N)sc2c1CCCCC2` gave an IC50 of over 5 µM. With `O=C(O)c1cc(-c2ccccc2)nc2ccccc12` the IC50 was over 5 µM. Work on `OCCC#Cc1nc(-c2ccc(F)cc2)c(-c2ccncc2)n1CCCc1ccccc1` yielded an IC50 of over 5 µM. For `O=C(O)c1ccccc1Sc1ncnc2sc3c(c12)CCC3`, the IC50 was over 5 µM. Work on `COc1ccc(NC(=O)c2cc3ccccn3n2)cc1` yielded an IC50 of over 5 µM. For `N#CCN1C(=O)COc2cc(F)c(N3C(=O)c4ccccc4C3=O)cc21`, the IC50 was over 5 µM. `O=C(O)c1cc(-c2ccc(Br)cc2)nc2ccc(Cl)cc12` was tested, and the IC50 was over 5 µM. `C[C@@]1(O)[C@H](O)[C@@H](CO)O[C@H]1n1ccc2c(N)ncnc21` showed an IC50 of over 5 µM. `CCNC(=O)Nc1cn2c(-c3ncc(CC)cn3)cc(-c3cccnc3)cc2n1` showed an IC50 of over 5 µM. For `O[C@@](Cn1cnnn1)(c1ccc(F)cc1F)C(F)(F)c1ccc(-c2ccc(OCC(F)(F)F)cc2)cn1`, the IC50 was over 5 µM. `Nc1nc(C(F)(F)F)cc2c1[nH]c(=O)n2Cc1ccccc1` gave an IC50 of over 5 µM. `CC(C)C(=O)N[C@H]1[C@H]([C@H](O)[C@H](O)CO)OC(C(=O)O)=C[C@@H]1N=[N+]=[N-]` was tested, and the IC50 was over 5 µM. `Nc1nc(O)c2ncn(COC(CO)CO)c2n1` was tested, and the IC50 was over 5 µM. `O=C(CCCC(F)(F)F)N1CCC(c2nc(-c3nccs3)no2)CC1` showed an IC50 of over 5 µM. `CC1(C)[C@H](C(=O)O)N2C(=O)C[C@H]2S1(=O)=O` showed an IC50 of over 5 µM. In the case of `C[C@H]1COc2c(N3CCN(C)CC3)c(F)cc3c(=O)c(C(=O)O)cn1c23`, the IC50 is reported as over 5 µM. `Nc1ccc(-c2nc3cc(C(F)(F)F)ccc3n2C23CC4CC(CC(C4)C2)C3)cc1` gave an IC50 of over 5 µM. In the case of `O=S(=O)(NCB(O)O)c1ccc(-c2nnn[nH]2)cc1C(F)(F)F`, the IC50 is reported as over 5 µM. For `C[C@@H](c1nc(-c2ccc(C#N)cc2)cs1)[C@](O)(Cn1cncn1)c1ccc(F)cc1F`, the IC50 was over 5 µM. With `Oc1ccc(NCc2ccccc2OCc2ccccc2)cc1` the IC50 was over 5 µM. Compound `CCOC(=O)N1CCN(c2ccc(Cl)cc2)CC1` has an IC50 of over 5 µM. `CC(C)n1cnc2c(NCc3ccccc3)nc(NCc3ccccc3)nc21` was tested, and the IC50 was over 5 µM. `CCCC1(C2CC2)c2cc(Cl)ccc2NC(=O)N1C` (configuration not stated) showed an IC50 of over 5 µM. For `O=C(Nc1ccccc1)N(Cc1cc(Br)ccc1O)c1ccc(F)cc1`, the IC50 was over 5 µM. In the case of `NC(=O)C(c1ccccc1)(c1ccccc1)[C@H]1CCCN(CCc2ccc3c(c2)CCO3)C1`, the IC50 is reported as over 5 µM. Compound `O=C(Nc1ccccc1C(=O)O)c1cccc(Oc2ccccc2)c1` has an IC50 of over 5 µM. `Cc1cc(O)c2c(c1)C(=O)c1c(I)c(O)c(I)c(O)c1C2=O` showed an IC50 of over 5 µM. In the case of `CC(=O)N[C@H](C)C(=O)N[C@H](Cc1ccccc1)C(=O)O`, the IC50 is reported as over 5 µM. With `CN(Cc1ccc(C(C)(C)C)cc1)Cc1cccc2ccccc12` the IC50 was over 5 µM. Work on `[N-]=[N+]=N[C@H]1C[C@H](n2ccc(=O)[nH]c2=O)O[C@@H]1CO` yielded an IC50 of over 5 µM. Work on `c1cnc(NCc2ccc(CNc3ncccn3)cc2)nc1` yielded an IC50 of over 5 µM. `CCN(CC)S(=O)(=O)c1ccc(Cl)c(C(=O)Nc2sc3c(c2C#N)CCCC3)c1` showed an IC50 of over 5 µM. Compound `Cc1cc(CCOc2c(C)cc(-c3nnn(C)n3)cc2C)on1` has an IC50 of over 5 µM. In the case of `Cc1cc(Nc2ccc(F)cc2)nc(SCc2nc3ccccc3[nH]2)n1`, the IC50 is reported as over 5 µM. In the case of `Cc1cc(NS(=O)(=O)c2ccc(-c3ccc(F)cc3F)cc2)no1`, the IC50 is reported as over 5 µM. `CCc1nc2ccc(Cl)cn2c1C(=O)NCc1ccc(N2CCC(c3ccc(OC(F)(F)F)cc3)CC2)cc1` gave an IC50 of over 5 µM. `C/C(=N\NC(=O)C1CC1c1ccccc1)c1ccc(NC(=O)c2ccco2)cc1` (configuration not stated) gave an IC50 of over 5 µM. Compound `CC1=C(/C=C/C(C)=C/C=C/C(C)=C/C(=O)Nc2ccc(O)cc2)C(C)(C)CCC1` has an IC50 of over 5 µM. Compound `Nc1cccc(-c2nc(N)nc(NC3Cc4ccccc4C3)n2)c1` has an IC50 of over 5 µM. `O=c1cc(Nc2ccc3ccccc3c2)[nH]c(=O)[nH]1` was tested, and the IC50 was over 5 µM. `COc1c(F)c(F)cc2c(=O)c(C(=O)O)cn(C3CC3)c12` gave an IC50 of over 5 µM. `Clc1cc2nc(C3CCNCC3)n(Cc3ccc(CNCCc4cnc[nH]4)cc3)c2cc1Cl` was tested, and the IC50 was 2.41 µM. `CN1C(=O)C(c2ccccc2)C(=O)N(c2ccccc2)c2cc(C(F)(F)F)ccc21` (configuration not stated) was tested, and the IC50 was over 5 µM. For `C[C@H](c1cccc2ccccc12)N(C)Cc1ccccc1`, the IC50 was over 5 µM. Compound `O=C(O)c1ccc(-n2nc(-c3ccccc3O)nc2-c2ccccc2O)cc1` has an IC50 of over 5 µM. For `NNC(=O)c1ccncc1`, the IC50 was over 5 µM. `Cc1cc(C)n(O)c(=O)c1` was tested, and the IC50 was over 5 µM. `CC1(C)C[C@H]1C(=O)N/C(=C\CCCCSC[C@@H](N)C(=O)O)C(=O)O` gave an IC50 of over 5 µM. With `Cc1nc2ccc(Cl)cc2c(-c2ccccc2)c1CC(=O)O` the IC50 was over 5 µM. In the case of `O=C(Nc1[nH]c(=O)ncc1F)c1ccccc1`, the IC50 is reported as over 5 µM. `O=c1ccc2ncc(=O)n3c2n1CC3CN1CCC(NCc2cc3c(cn2)OCCC3)CC1` (configuration not stated) gave an IC50 of over 5 µM. Compound `C=C(C)[C@@H]1CC[C@]2(C(=O)O)CC[C@]3(C)[C@H](CC[C@@H]4[C@@]5(C)CC[C@H](O)C(C)(C)[C@@H]5CC[C@]43C)[C@@H]12` has an IC50 of over 5 µM. With `CN(C(=O)C1(c2ccc(Cl)cc2)CCC1)c1ccccc1` the IC50 was over 5 µM. For `NCc1ccc(S(N)(=O)=O)cc1`, the IC50 was over 5 µM. `C[C@@H](O)[C@H](N)C(=O)NS(=O)(=O)c1cccc(-c2ccc3[nH]ncc3c2)c1` was tested, and the IC50 was over 5 µM. `Clc1ccc(COC(Cn2ccnc2)c2ccc(Cl)cc2Cl)c(Cl)c1` (configuration not stated) showed an IC50 of over 5 µM. Compound `COc1c(NC(=O)[C@H]2CC[C@@H](COc3ccc([N+](=O)[O-])cc3)CC2)c(F)cc2c(=O)c(C(=O)O)cn(C3CC3)c12` has an IC50 of over 5 µM. `C=C(C)n1c(=O)n(Cc2ccccc2C)c2ccccc21` showed an IC50 of over 5 µM. Work on `Cc1cc(C)n2nc(C(=O)NS(=O)(=O)c3c(C)cccc3OC(F)(F)F)nc2n1` yielded an IC50 of over 5 µM. `Nc1cc(-c2nc3ccccc3[nH]2)n[nH]c1=O` showed an IC50 of over 5 µM. `CC(=O)N1c2ccccc2NC2=C(C(=O)CC(C)(C)C2)C1c1ccc(OCc2ccccc2)cc1` (configuration not stated) showed an IC50 of over 5 µM. For `OCCCCn1cnc2c(O)nc(NCc3ccc(Cl)c(Cl)c3)nc21`, the IC50 was over 5 µM. With `COc1ccc(COc2cc3oc(=O)c4cc(C(C)O)ccc4c3cc2OC)cc1` (configuration not stated) the IC50 was over 5 µM. In the case of `COC(=O)Nc1nc2ccccc2[nH]1`, the IC50 is reported as over 5 µM. In the case of `C[C@H](Cn1cnc2c(N)ncnc21)OCP(=O)(O)O`, the IC50 is reported as over 5 µM. `CC(C)CCN1C(=O)C(C2=NS(=O)(=O)c3cc(NS(C)(=O)=O)ccc3N2)=C(O)[C@@H]2[C@H]3CC[C@H](C3)[C@@H]21` showed an IC50 of over 5 µM. `CC(C)N(c1cc(-c2ccccc2)sc1C(=O)O)C(=O)[C@H]1CC[C@H](C)CC1` showed an IC50 of over 5 µM. Work on `O=[N+]([O-])c1cn2c(n1)OC[C@@H](OCc1ccc(OC(F)(F)F)cc1)C2` yielded an IC50 of over 5 µM. For `C[C@@H](NC(=O)c1ccccc1-c1ccccc1)B(O)O`, the IC50 was over 5 µM. Compound `COC(=O)Nc1nc2cc(Sc3ccccc3)ccc2[nH]1` has an IC50 of over 5 µM. With `O=[N+]([O-])/C(Br)=C/c1ccc(Br)o1` the IC50 was over 5 µM. With `CC(C)(C)c1ccc(C(=O)NC(=O)N2CCCc3ccccc32)cc1` the IC50 was over 5 µM.
